From ChEMBL document CHEMBL1201862, “PubChem BioAssay data set” (2004)
Calls of active or inactive are those of the source.

System: not listed separately
Assay: cells
Format: functional, cell-based
Conditions: not given

| Structure (SMILES) | EC50 |
| --- | --- |
| CCOC(=O)/C(=N\Nc1ccc(F)cc1)C(=O)c1ccc([N+](=O)[O-])cc1 | > 350 µM (not active) |
| Cc1cc(-c2nnnn2-c2cc(Cl)cc(Cl)c2)no1 | > 350 µM (not active) |
| Cc1ccc(NC(=O)CSc2ncc3ccccn23)cc1 | > 350 µM (not active) |
| COc1ccc(C2NN=C(c3ccc(C)cc3)S2)cc1 (configuration not stated) | > 350 µM (not active) |
| CCc1nc(N2CCN(C(=O)c3ccco3)CC2)c2c3c(sc2n1)CCCC3 | > 350 µM (not active) |
| CC(C(=O)Nc1ccccc1-c1ccccc1)N1CCN(C(=O)c2ccccc2)CC1 (configuration not stated) | > 350 µM (not active) |
| Cc1ccc(C(=O)Nc2c3c(nn2C(C)(C)C)CS(=O)(=O)C3)cc1C | > 350 µM (not active) |

System: not listed separately
Assay: cells
Format: functional, cell-based
Conditions: not given
Remark: another data set of the same source

| Structure (SMILES) | EC50 |
| --- | --- |
| CCOC(=O)/C(=N\Nc1ccc(F)cc1)C(=O)c1ccc([N+](=O)[O-])cc1 | > 350 µM (not active) |
| Cc1cc(-c2nnnn2-c2cc(Cl)cc(Cl)c2)no1 | > 350 µM (not active) |
| Cc1ccc(NC(=O)CSc2ncc3ccccn23)cc1 | 41.4 µM (active) |
| COc1ccc(C2NN=C(c3ccc(C)cc3)S2)cc1 (configuration not stated) | 24.6 µM (active) |
| CC(C(=O)Nc1ccccc1-c1ccccc1)N1CCN(C(=O)c2ccccc2)CC1 (configuration not stated) | > 350 µM (not active) |
| Cc1ccc(C(=O)Nc2c3c(nn2C(C)(C)C)CS(=O)(=O)C3)cc1C | > 350 µM (not active) |

System: not listed separately
Assay: cells
Format: functional
Conditions: not given
Remark: another data set of the same source

| Structure (SMILES) | IC50 |
| --- | --- |
| CCc1c(C)c2ccc(OCC(=O)OC)cc2oc1=O | 16.6 µM (active) |
| CN(CC(=O)Nc1ccc(C#N)cc1)Cc1ccc(Cl)c(Cl)c1 | 42.3 µM (active) |
| CCNC(=O)COC(=O)c1ccc(-c2nc3ccccc3s2)s1 | 5.44 µM (active) |
| COc1ccc(-c2noc(-c3cc4ccccc4oc3=O)n2)cc1 | 5.25 µM (active) |
| COc1ccccc1NC(=O)c1cnc(SC)nc1 | 49.4 µM (active) |
| CCC(C)(C)c1ccc(OCC(=O)Nc2ccncc2)cc1 | 8.95 µM (active) |

Target: Cytochrome P450 2C19 (Homo sapiens, UniProt P33261)
Sequence (P33261 whole entry): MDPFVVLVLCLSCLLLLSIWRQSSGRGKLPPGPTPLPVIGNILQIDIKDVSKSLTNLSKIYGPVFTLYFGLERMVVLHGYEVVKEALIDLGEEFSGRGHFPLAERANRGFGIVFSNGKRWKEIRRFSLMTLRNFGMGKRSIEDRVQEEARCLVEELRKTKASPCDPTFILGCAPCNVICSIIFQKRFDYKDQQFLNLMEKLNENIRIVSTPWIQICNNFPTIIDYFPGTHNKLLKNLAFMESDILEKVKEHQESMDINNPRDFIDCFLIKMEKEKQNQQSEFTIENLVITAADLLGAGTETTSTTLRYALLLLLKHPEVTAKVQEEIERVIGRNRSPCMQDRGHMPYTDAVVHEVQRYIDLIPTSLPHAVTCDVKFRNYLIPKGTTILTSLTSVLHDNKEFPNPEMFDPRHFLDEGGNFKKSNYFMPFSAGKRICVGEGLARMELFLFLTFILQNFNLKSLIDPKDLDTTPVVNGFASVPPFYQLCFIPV
Assay: Cytochrome panel assay with activity outcomes. Panel member name: p450-cyp2c19 Compounds with AC50 equal or less than 10 uM are considered active
Format: functional
Conditions: read-out: AC50

| Structure (SMILES) | AC50 |
| --- | --- |
| O=C(NCCO)c1ccc(Cl)cc1 | 2 µM (inconclusive) |
| NS(=O)(=O)c1ccc(/N=N\c2cnc(O)c(O)c2)cc1 | 6.31 µM (inconclusive) |
| COc1ccccc1-c1nc(NCc2cccnc2)c2ccccc2n1 | 39.8 µM (inconclusive) |

System: INS1
Assay: beta cell apoptosis inhibitors, cytokine rescue, dose response, luminescence, retest (AID 449756);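 note: cell death triggered by IL-1 beta plus TNF-alpha plus IFN-gamma mixture; protective hits raise ATP signal compared with cytokine alone wells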
Format: functional, cell-based
Conditions: Rattus norvegicus

| Structure (SMILES) | AC50 |
| --- | --- |
| CC(=O)c1cccc(NS(=O)(=O)c2ccc(N/C=C\C(=O)c3ccc(F)cc3)cc2)c1 | 3.74 µM (active) |

Target: T1, Polyadenylate-binding protein 1 (Homo sapiens, UniProt P11940)
T1 sequence (P11940 whole entry): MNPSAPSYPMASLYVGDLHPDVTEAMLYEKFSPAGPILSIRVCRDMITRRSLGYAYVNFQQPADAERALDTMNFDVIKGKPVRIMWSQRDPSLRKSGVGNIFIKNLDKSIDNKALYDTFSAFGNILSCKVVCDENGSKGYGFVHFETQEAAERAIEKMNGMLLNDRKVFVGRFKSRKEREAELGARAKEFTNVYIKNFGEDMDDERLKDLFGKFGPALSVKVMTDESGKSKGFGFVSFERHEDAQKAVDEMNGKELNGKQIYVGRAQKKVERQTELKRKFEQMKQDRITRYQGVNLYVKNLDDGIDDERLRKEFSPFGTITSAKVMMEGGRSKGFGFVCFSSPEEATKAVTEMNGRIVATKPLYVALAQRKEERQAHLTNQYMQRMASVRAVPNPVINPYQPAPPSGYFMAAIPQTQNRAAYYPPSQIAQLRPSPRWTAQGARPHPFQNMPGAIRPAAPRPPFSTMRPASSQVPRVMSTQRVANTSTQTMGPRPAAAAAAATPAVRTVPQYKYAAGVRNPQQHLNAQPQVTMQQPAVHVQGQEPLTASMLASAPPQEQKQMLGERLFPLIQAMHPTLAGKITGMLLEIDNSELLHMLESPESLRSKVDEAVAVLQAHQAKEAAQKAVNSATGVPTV
Assay: PABP1 MLLE–PAM2 interaction inhibitors, dose response, miRNA deadenylation inhibitor project, biochemical, fluorescence polarization, Cy5-PAM2 peptide, secondary (AID 602260)
Format: functional
Conditions: read-out: IC50_Mean

| Structure (SMILES) | IC50 |
| --- | --- |
| CC(=O)Nc1ccc(SC[C@H](Cc2ccccc2)N2CC[C@@H](O)CCC2=O)cc1 | > 66 µM (inactive) |
| O=C(NC(=S)Nc1ccccc1Br)c1ccco1 | > 66 µM (inactive) |
| Oc1c(N=Nc2nn[nH]n2)ccc2ccccc12 | > 66 µM (inactive) |
| CCCc1cc(=O)[nH]c(SCC(=O)Nc2nonc2N)n1 | > 66 µM (inactive) |
| Cc1cc(C)n(CC(=O)NNC(=O)COc2ccc(Br)cc2F)n1 | > 66 µM (inactive) |

Target: T2, Corticotropin-releasing factor receptor 2/Corticotropin-releasing factor-binding protein (Homo sapiens, UniProt P24387+Q13324)
T2 sequence (Q13324 whole entry): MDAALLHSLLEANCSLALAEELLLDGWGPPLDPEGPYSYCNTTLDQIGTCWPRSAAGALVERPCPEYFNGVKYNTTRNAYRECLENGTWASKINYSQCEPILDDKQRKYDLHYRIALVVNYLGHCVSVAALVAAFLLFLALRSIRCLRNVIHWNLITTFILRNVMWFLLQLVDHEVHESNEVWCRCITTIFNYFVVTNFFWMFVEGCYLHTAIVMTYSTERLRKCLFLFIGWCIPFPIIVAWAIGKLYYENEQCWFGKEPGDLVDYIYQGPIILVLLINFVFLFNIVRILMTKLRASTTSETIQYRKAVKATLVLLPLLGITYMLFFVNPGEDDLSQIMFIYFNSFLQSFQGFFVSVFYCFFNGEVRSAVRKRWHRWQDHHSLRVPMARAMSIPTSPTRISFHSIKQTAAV
T2 sequence (P24387 whole entry): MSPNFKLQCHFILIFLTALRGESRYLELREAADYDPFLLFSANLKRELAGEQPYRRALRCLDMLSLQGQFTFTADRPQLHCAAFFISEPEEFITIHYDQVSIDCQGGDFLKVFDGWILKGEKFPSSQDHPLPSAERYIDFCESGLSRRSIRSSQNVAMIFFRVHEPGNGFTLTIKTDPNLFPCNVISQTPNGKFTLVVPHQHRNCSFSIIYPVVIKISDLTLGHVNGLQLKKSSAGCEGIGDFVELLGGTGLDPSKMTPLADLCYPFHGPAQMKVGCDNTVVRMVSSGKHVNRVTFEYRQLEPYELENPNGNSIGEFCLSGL
Assay: Dose Response confirmation of uHTS hits for small molecule antagonists of the CRF-binding protein and CRF-R2 receptor complex.
Format: functional
Conditions: read-out: IC50_Mean

| Structure (SMILES) | IC50 |
| --- | --- |
| CC(C)N(C(=O)[C@H]1C[C@H](CC(=O)NCc2ccco2)C(=O)N2CCc3c([nH]c4cc(CCC(=O)N(C)C)ccc34)[C@]12C)C(C)C | > 47.1 µM (inactive) |
| O=C(CCCc1ccccc1)Nc1nncs1 | > 47.1 µM (inactive) |
| CC1(Cc2ccc3c(c2)OCO3)NC(=O)NC1=O (configuration not stated) | > 47.1 µM (inactive) |
| O=C(NCCCCCCNC(=O)N1CCCCCC1)N1CCCCCC1 | > 47.1 µM (inactive) |

Target: T1, Polyadenylate-binding protein 1
Assay: PABP1 MLLE–PAM2 binding inhibitor potency, dose response, biochemical, fluorescence polarization, FITC-PAM2 peptide (AID 602259)
Format: functional
Conditions: read-out: IC50_Mean

| Structure (SMILES) | IC50 |
| --- | --- |
| CC(=O)Nc1ccc(SC[C@H](Cc2ccccc2)N2CC[C@@H](O)CCC2=O)cc1 | > 66 µM (inactive) |
| O=C(NC(=S)Nc1ccccc1Br)c1ccco1 | > 66 µM (inactive) |
| Oc1c(N=Nc2nn[nH]n2)ccc2ccccc12 | 38.9 µM (inactive) |
| CCCc1cc(=O)[nH]c(SCC(=O)Nc2nonc2N)n1 | > 66 µM (inactive) |
| Cc1cc(C)n(CC(=O)NNC(=O)COc2ccc(Br)cc2F)n1 | > 66 µM (inactive) |

Target: T2, Corticotropin-releasing factor receptor 2/Corticotropin-releasing factor-binding protein
Assay: activators of CRF receptor 2 with binding protein – uHTS hits, confirmation (AID 602473)
Format: functional
Conditions: read-out: EC50_Mean

| Structure (SMILES) | EC50 |
| --- | --- |
| CC(C)N(C(=O)[C@H]1C[C@H](CC(=O)NCc2ccco2)C(=O)N2CCc3c([nH]c4cc(CCC(=O)N(C)C)ccc34)[C@]12C)C(C)C | > 53 µM (inactive) |
| O=C(CCCc1ccccc1)Nc1nncs1 | > 53 µM (inactive) |
| CC1(Cc2ccc3c(c2)OCO3)NC(=O)NC1=O (configuration not stated) | > 53 µM (inactive) |
| O=C(NCCCCCCNC(=O)N1CCCCCC1)N1CCCCCC1 | > 53 µM (inactive) |

Target: Cytochrome P450 2D6 (Homo sapiens, UniProt P10635);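 note: CYP2D6 member of a cytochrome P450 panel assay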
Sequence (P10635 whole entry): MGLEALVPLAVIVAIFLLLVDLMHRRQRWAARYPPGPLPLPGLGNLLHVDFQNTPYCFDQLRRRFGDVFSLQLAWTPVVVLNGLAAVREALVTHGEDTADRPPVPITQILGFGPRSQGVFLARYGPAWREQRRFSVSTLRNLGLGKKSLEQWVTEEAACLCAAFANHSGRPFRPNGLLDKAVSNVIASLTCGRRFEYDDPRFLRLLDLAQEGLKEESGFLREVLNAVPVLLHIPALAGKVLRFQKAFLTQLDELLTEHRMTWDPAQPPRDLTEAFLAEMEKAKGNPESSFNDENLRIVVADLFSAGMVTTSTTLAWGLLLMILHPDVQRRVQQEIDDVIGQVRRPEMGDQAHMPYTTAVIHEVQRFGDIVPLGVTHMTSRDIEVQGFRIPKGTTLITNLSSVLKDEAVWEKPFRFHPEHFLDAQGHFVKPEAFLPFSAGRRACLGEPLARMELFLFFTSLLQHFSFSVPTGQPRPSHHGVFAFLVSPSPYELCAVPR
Assay: not given
Conditions: not given

| Structure (SMILES) | AC50 |
| --- | --- |
| O=C(NCCO)c1ccc(Cl)cc1 | 2 µM (inconclusive) |
| NS(=O)(=O)c1ccc(/N=N\c2cnc(O)c(O)c2)cc1 | 5.01 µM (inconclusive) |
| CC(=O)c1cccc(NS(=O)(=O)c2ccc(N/C=C\C(=O)c3ccc(F)cc3)cc2)c1 | 8.91 µM (inconclusive) |
| COc1ccccc1-c1nc(NCc2cccnc2)c2ccccc2n1 | 20 µM (inconclusive) |

Target: Cytochrome P450 2C9 (Homo sapiens, UniProt P11712)
Sequence (P11712 whole entry): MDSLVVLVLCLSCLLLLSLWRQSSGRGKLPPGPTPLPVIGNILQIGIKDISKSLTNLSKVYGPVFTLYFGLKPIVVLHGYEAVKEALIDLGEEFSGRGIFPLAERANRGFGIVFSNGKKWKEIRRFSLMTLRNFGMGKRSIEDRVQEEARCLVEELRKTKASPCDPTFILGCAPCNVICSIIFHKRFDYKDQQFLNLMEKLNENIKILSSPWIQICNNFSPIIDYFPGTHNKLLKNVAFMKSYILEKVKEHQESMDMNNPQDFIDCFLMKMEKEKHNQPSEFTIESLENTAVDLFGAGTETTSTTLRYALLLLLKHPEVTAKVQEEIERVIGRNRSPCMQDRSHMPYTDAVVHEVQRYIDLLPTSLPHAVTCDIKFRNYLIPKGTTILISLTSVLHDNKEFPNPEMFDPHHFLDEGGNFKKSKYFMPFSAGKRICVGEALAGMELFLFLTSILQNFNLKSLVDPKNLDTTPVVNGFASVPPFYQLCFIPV
Assay: not given
Conditions: not given

| Structure (SMILES) | AC50 |
| --- | --- |
| O=C(NCCO)c1ccc(Cl)cc1 | 5.01 µM (inconclusive) |
| NS(=O)(=O)c1ccc(/N=N\c2cnc(O)c(O)c2)cc1 | 6.31 µM (inconclusive) |
